Converted amounts (≈) assume the structure as drawn.

Experimental findings from US10471046B2, “Method for treating, preventing, or reducing the risk of skin infection” (Melinta Subsidiary Corp., priority 2014, dated 2019) are described below.

For one assay, the system named is S. aureus. Put plainly: Minimum inhibitory concentrations (MICs) for S. aureus of exemplary compounds (Table 2). Format: cell-based. The note with it: Staphylococcus aureus, minimum inhibitory concentrations for S. aureus; read-out: MICs. The source says: Exemplary compounds in accordance with the invention are listed in Table 2 with their minimum inhibitory concentrations (MICs) (μg/mL) for S. aureus:
Furthermore, the antibiotic compounds can be assayed for anti-proliferative or anti-infective properties on a cellular level. For example, where the target organism is a microorganism, the activity of compounds of interest can be assayed by growing the microorganisms of interest in media either containing or lacking the compound. Growth inhibition can be indicative that the molecule could be acting as a protein synthesis inhibitor. […] For this purpose, a panel of bacterial strains can be assembled to include a variety of target pathogenic species, some containing resistance mechanisms that have been characterized. Use of such a panel of organisms permits the determination of structure-activity relationships not only in regards to potency and spectrum, but also with a view to obviating resistance mechanisms. The assays can be performed in microtiter trays according to conventional methodologies as published by The National Committee for Clinical Laboratory Standards (NCCLS) guidelines (NCCLS. M7-A5-Methods for Dilution Antimicrobial Susceptibility Tests for Bacteria That Grow Aerobically; Approved Standard-Fifth Edition. NCCLS Document M100-S12/M7 (ISBN 1-56238-394-9)).
As for `CC(=O)NC[C@H]1CN(c2ccc(-c3ccc(Cn4ccnn4)cc3)c(F)c2)C(=O)O1` [Compound 1015, N-[3-(2-Fluoro-4′-[1,2,3]triazol-1-ylmethyl-biphenyl-4-yl)-2-oxo-oxazolidin-5-(S)-ylmethyl]-acetamide], the MIC was 0.25 µg/mL (≈ 0.611 µM).

For `CC(=O)NC[C@H]1CN(c2ccc(-c3ccc(Cc4noc(C)n4)cc3)c(F)c2)C(=O)O1` [Compound 1017, N-{3-[2-Fluoro-4′-(5-(S)-methyl-[1,2,4]oxadiazol-3-ylmethyl)-biphenyl-4-yl]-2-oxo-oxazolidin-5-(S)-ylmethyl}-acetamide], the MIC worked out at 1 µg/mL (≈ 2.36 µM).

As to `CC(=O)NC[C@H]1CN(c2ccc(-c3ccc(Cn4nccn4)cc3)c(F)c2)C(=O)O1` [Compound 1023, N-[3-(2-Fluoro-4′-[1,2,3]triazol-2-ylmethyl-biphenyl-4-yl)-2-oxo-oxazolidin-5-(S)-ylmethyl]-acetamide], the MIC was found to be 0.25 µg/mL (≈ 0.611 µM).

On to `CC(=O)NC[C@H]1CN(c2ccc(-c3ccc(Cn4nnc(N)n4)cc3)c(F)c2)C(=O)O1` [Compound 1024, N-{3-[4′-(5-Amino-tetrazol-2-ylmethyl)-2-fluoro-biphenyl-4-yl]-2-oxo-oxazolidin-5-(S)-ylmethyl}-acetamide], for which the MIC amounted to 0.25 µg/mL (≈ 0.588 µM).

Turning to `CC(=O)NC[C@H]1CN(c2ccc(-c3ccc(Cn4nnnc4N)cc3)c(F)c2)C(=O)O1` [Compound 1025, N-{3-[4′-(5-Amino-tetrazol-1-ylmethyl)-2-fluoro-biphenyl-4-yl]-2-oxo-oxazolidin-5-(S)-ylmethyl}-acetamide], the MIC is 0.5 µg/mL (≈ 1.18 µM).

In the case of `CC(=O)NC[C@H]1CN(c2ccc(-c3ccc(Cn4nnc(C(N)=O)c4N)cc3)c(F)c2)C(=O)O1` [Compound 1026, 1-{4′-[5-(S)-(Acetylamino-methyl)-2-oxo-oxazolidin-3-yl]-2′-fluoro-biphenyl-4-ylmethyl}-5-amino-1H-[1,2,3]triazole-4-carboxylic acid amide], the MIC was found to be 2 µg/mL (≈ 4.28 µM).

Regarding `CC(=O)NC[C@H]1CN(c2ccc(-c3ccc(Cn4nnc5c(=O)[nH]cnc54)cc3)c(F)c2)C(=O)O1` [Compound 1027, N-{3-[2-Fluoro-4′-(7-oxo-6,7-dihydro-[1,2,3]triazolo[4,5-d]pyrimidin-3-ylmethyl)-biphenyl-4-yl]-2-oxo-oxazolidin-5-(S)-ylmethyl}-acetamide], the MIC worked out at 1 µg/mL (≈ 2.09 µM).

In the case of `CC(=O)NC[C@H]1CN(c2ccc(-c3ccc(Cn4cc(CO)nn4)cc3)c(F)c2)C(=O)O1` [Compound 1028, N-{3-[2-Fluoro-4′-(4-hydroxymethyl-[1,2,3]triazol-1-ylmethyl)-biphenyl-4-yl]-2-oxo-oxazolidin-5-(S)-ylmethyl}-acetamide], the MIC stood at 1 µg/mL (≈ 2.28 µM).

For `CC(=O)NC[C@H]1CN(c2ccc(-c3ccc(CN4CCN(CCO)CC4)cc3)c(F)c2)C(=O)O1` [Compound 1029, N-(3-{2-Fluoro-4′-[4-(2-hydroxy-ethyl)-piperazin-1-ylmethyl]-biphenyl-4-yl}-2-oxo-oxazolidin-5-(S)-ylmethyl)-acetamide], the MIC turned out to be 2 µg/mL (≈ 4.25 µM).

For the molecule `CC(=O)NC[C@H]1CN(c2ccc(-c3ccc(CN4CCC(CCO)CC4)cc3)c(F)c2)C(=O)O1` [Compound 1030, N-(3-{2-Fluoro-4′-[4-(2-hydroxy-ethyl)-piperidin-1-ylmethyl]-biphenyl-4-yl}-2-oxo-oxazolidin-5-(S)-ylmethyl)-acetamide], the MIC is 2 µg/mL (≈ 4.26 µM).

Turning to `CC(=O)NC[C@H]1CN(c2ccc(-c3ccc([C@@H](N)Cn4ccnc4)cc3)c(F)c2)C(=O)O1` [Compound 1031, N-{3-[4′-(R)-(1-Amino-2-imidazol-1-yl-ethyl)-2-fluoro-biphenyl-4-yl]-2-oxo-oxazolidin-5-(S)-ylmethyl}-acetamide], the MIC was 8 µg/mL (≈ 18.3 µM).

For the molecule `NC[C@H]1CN(c2ccc(-c3ccc(Cn4cnnn4)cc3)c(F)c2)C(=O)O1` [Compound 1032, 5-(S)-Aminomethyl-3-(2-fluoro-4′-tetrazol-1-ylmethyl-biphenyl-4-yl)-oxazolidin-2-one], the MIC came to 32 µg/mL (≈ 86.9 µM).

As for `O=C(CCl)NC[C@H]1CN(c2ccc(-c3ccc(Cn4cnnn4)cc3)c(F)c2)C(=O)O1` [Compound 1033, 2-Chloro-N-[3-(2-fluoro-4′-tetrazol-1-ylmethyl-biphenyl-4-yl)-2-oxo-oxazolidin-5-(S)-ylmethyl]-acetamide], the MIC was determined as 0.25 µg/mL (≈ 0.562 µM).

As for `O=C(NC[C@H]1CN(c2ccc(-c3ccc(Cn4cnnn4)cc3)c(F)c2)C(=O)O1)C(Cl)Cl` [Compound 1034, 2,2-Dichloro-N-[3-(2-fluoro-4′-tetrazol-1-ylmethyl-biphenyl-4-yl)-2-oxo-oxazolidin-5-(S)-ylmethyl]-acetamide], the MIC came to 0.5 µg/mL (≈ 1.04 µM).

Turning to `CC(=O)NC[C@H]1CN(c2ccc(-c3ccc(Cn4cnnn4)nc3)c(F)c2)C(=O)O1` [Compound 1035, N-{3-[3-Fluoro-4-(6-tetrazol-1-ylmethyl-pyridin-3-yl)-phenyl]-2-oxo-oxazolidin-5-(S)-ylmethyl}-acetamide], the MIC amounted to 0.5 µg/mL (≈ 1.22 µM).

`CC(=O)NC[C@H]1CN(c2ccc(-c3ccc(Cn4ccnn4)nc3)c(F)c2)C(=O)O1` [Compound 1036, N-{3-[3-Fluoro-4-(6-[1,2,3]triazol-1-ylmethyl-pyridin-3-yl)-phenyl]-2-oxo-oxazolidin-5-(S)-ylmethyl}-acetamide]: the MIC amounted to 1 µg/mL (≈ 2.44 µM).

With `CC(=O)NC[C@H]1CN(c2ccc(-c3ccc(Cn4cncn4)cc3)c(F)c2)C(=O)O1` [Compound 1037, N-[3-(2-Fluoro-4′-[1,2,4]triazol-1-ylmethyl-biphenyl-4-yl)-2-oxo-oxazolidin-5-(S)-ylmethyl]-acetamide], the MIC was 0.5 µg/mL (≈ 1.22 µM).

With `CC(=O)NC[C@H]1CN(c2ccc(-c3ccc(CN4CCN(c5ncc(C(F)(F)F)cc5Cl)CC4)cc3)c(F)c2)C(=O)O1` [Compound 1038, N-(3-{4′-[4-(3-Chloro-5-trifluoromethyl-pyridin-2-yl)-piperazin-1-ylmethyl]-2-fluoro-biphenyl-4-yl}-2-oxo-oxazolidin-5-(S)-ylmethyl)-acetamide], the MIC stood at 128 µg/mL (≈ 211 µM).

Take `CC(=O)NC[C@H]1CN(c2ccc(-c3ccc(Cn4cccn4)cc3)c(F)c2)C(=O)O1` [Compound 1043, N-[3-(2-Fluoro-4′-pyrazol-1-ylmethyl-biphenyl-4-yl)-2-oxo-oxazolidin-5-(S)-ylmethyl]-acetamide]: the MIC turned out to be 0.25 µg/mL (≈ 0.612 µM).

For the molecule `CC(=O)NC[C@H]1CN(c2ccc(-c3ccc([C@H](O)CN4CCN(C=O)CC4)cc3)c(F)c2)C(=O)O1` [Compound 1044, N-(3-{2-Fluoro-4′-[2-(4-formyl-piperazin-1-yl)-1-(S)-hydroxy-ethyl]-biphenyl-4-yl}-2-oxo-oxazolidin-5-(S)-ylmethyl)-acetamide], the MIC was found to be 0.5 µg/mL (≈ 1.03 µM).

For the molecule `CC(=O)NC[C@H]1CN(c2ccc(-c3ccc([C@H](CO)N4CCN(C=O)CC4)cc3)c(F)c2)C(=O)O1` [Compound 1045, N-(3-{2-Fluoro-4′-[1-(R)-(4-formyl-piperazin-1-yl)-2-hydroxy-ethyl]-biphenyl-4-yl}-2-oxo-oxazolidin-5-(S)-ylmethyl)-acetamide], the MIC was 0.5 µg/mL (≈ 1.03 µM).

In the case of `CC(=O)NC[C@H]1CN(c2ccc(-c3ccc([C@H](O)Cn4ccnc4)cc3)c(F)c2)C(=O)O1` [Compound 1046, N-{3-[2-Fluoro-4′-(1-(S)-hydroxy-2-imidazol-1-yl-ethyl)-biphenyl-4-yl]-2-oxo-oxazolidin-5-(S)-ylmethyl}-acetamide], the MIC was 1 µg/mL (≈ 2.28 µM).

Still in this assay, the particulars now being: Staphylococcus aureus, read-out: MICs.
For `CC(=O)NC[C@H]1CN(c2ccc(-c3ccc(Cc4nc(=O)o[nH]4)cc3)c(F)c2)C(=O)O1` [Compound 1016, N-{3-[2-Fluoro-4′-(5-(S)-oxo-2,5-(S)-dihydro-[1,2,4]oxadiazol-3-ylmethyl)-biphenyl-4-yl]-2-oxo-oxazolidin-5-(S)-ylmethyl}-acetamide], the MIC stood at 4 µg/mL (≈ 9.38 µM).

For the molecule `CC(=O)NC[C@H]1CN(c2cc(F)c(-c3ccc(Cn4cc(CO)nn4)cc3)c(F)c2)C(=O)O1` [Compound 1018, N-{3-[2,6-Difluoro-4′-(4-hydroxymethyl-[1,2,3]triazol-1-ylmethyl)-biphenyl-4-yl]-2-oxo-oxazolidin-5-(S)-ylmethyl}-acetamide], the MIC stood at 1 µg/mL (≈ 2.19 µM).

Take `CC(=O)NC[C@H]1CN(c2cc(F)c(-c3ccc(Cn4cc(CN(C)C)nn4)cc3)c(F)c2)C(=O)O1` [Compound 1019, N-{3-[4′-(4-Dimethylaminomethyl-[1,2,3]triazol-1-ylmethyl)-2,6-difluoro-biphenyl-4-yl]-2-oxo-oxazolidin-5-(S)-ylmethyl}-acetamide]: the MIC stood at 2 µg/mL (≈ 4.13 µM).

Turning to `CC(=O)NC[C@H]1CN(c2ccc(-c3ccc(Cc4csc(NCC5CCCO5)n4)cc3)c(F)c2)C(=O)O1` (stereo partly drawn) [Compound 1020, N-[3-(2-Fluoro-4′-{2-[(tetrahydro-furan-2-ylmethyl)-amino]-thiazol-4-ylmethyl}-biphenyl-4-yl)-2-oxo-oxazolidin-5-(S)-ylmethyl]-acetamide], the MIC was found to be 1 µg/mL (≈ 1.91 µM).

Turning to `COc1cccc(CNc2nc(Cc3ccc(-c4ccc(N5C[C@H](CNC(C)=O)OC5=O)cc4F)cc3)cs2)c1` [Compound 1021, N-(3-{2-Fluoro-4′-[2-(3-methoxy-benzylamino)-thiazol-4-ylmethyl]-biphenyl-4-yl}-2-oxo-oxazolidin-5-(S)-ylmethyl)-acetamide], the MIC came to 1 µg/mL (≈ 1.78 µM).

As to `CC(=O)NC[C@H]1CN(c2ccc(-c3ccc(CN4CC(C#N)C4)cc3)c(F)c2)C(=O)O1` [Compound 1022, N-{3-[4′-(3-Cyano-azetidin-1-ylmethyl)-2-fluoro-biphenyl-4-yl]-2-oxo-oxazolidin-5-(S)-ylmethyl}-acetamide], the MIC came to 0.25 µg/mL (≈ 0.592 µM).
